Experimental data published in patent publication US6727264B1 (Synaptic Pharmaceutical Corporation, priority 2001, dated 2004).

Molecular target: rat MCH-1 (Rattus norvegicus, UniProt P97639)
Experiment: Radioligand binding assay at cloned rat MCH1 receptor ([3H] Compound A)
Parameters: host or cells: Peak rapid 293 (Peakr293) cells, transient calcium phosphate transfection, membranes
Conditions: cloned rat MCH1 receptor; 0.08 nM [3H] Compound A; Peakr293 cell membranes; read-out: Ki (nM) rMCH1

Chain of rat MCH-1 (P97639 whole entry): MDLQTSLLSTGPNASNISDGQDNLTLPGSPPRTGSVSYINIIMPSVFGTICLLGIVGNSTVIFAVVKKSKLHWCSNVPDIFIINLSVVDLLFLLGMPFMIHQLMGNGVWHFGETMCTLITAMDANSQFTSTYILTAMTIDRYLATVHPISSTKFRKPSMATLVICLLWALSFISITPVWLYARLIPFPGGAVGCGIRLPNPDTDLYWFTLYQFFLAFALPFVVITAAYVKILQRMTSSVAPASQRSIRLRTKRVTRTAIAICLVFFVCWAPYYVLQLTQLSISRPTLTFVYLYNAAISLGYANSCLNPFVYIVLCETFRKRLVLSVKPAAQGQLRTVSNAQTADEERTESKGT

Row | Ki [nM] | Structure (SMILES)
1 | 87.1 | CC(C)C(=O)Nc1cccc(C2CCN(CCCCCN3C(=O)OC[C@@H]3c3ccc(F)c(F)c3)CC2)c1 [Example 574]
2 | 193 | CC(C)C(=O)Nc1cccc(C2CCN(CCCCC(=O)N3C(=O)OC[C@@H]3c3ccc(F)c(F)c3)CC2)c1 [Example 575]
3 | 74.3 | CC(C)C(=O)Nc1cccc(C2CCN(CCCNC(=O)N3C(=O)OC[C@@H]3c3ccc(F)c(F)c3)CC2)c1 [Example 576]
4 | 64.7 | CC(C)C(=O)Nc1cccc(C2CCN(CCCNC(=O)N3C(=O)OC[C@@H]3c3cc(F)c(F)c(F)c3)CC2)c1 [Example 577]
5 | 98.8 | CC(C)C(=O)Nc1cccc(C2CCN(CCCNC(=O)N3C(=O)OC[C@@H]3c3cc(F)cc(F)c3)CC2)c1 [Example 578]
6 | 131 | CCC(=O)Nc1cccc(C2CCN(CCCSc3ccccc3)CC2)c1 [Example 579]
7 | 54 | O=C(Nc1cccc(C2CCN(CCCSc3ccccc3)CC2)c1)C1CC1 [Example 580]
8 | 86.4 | CC(C)C(=O)Nc1cccc(C2CCN(CCCSc3ccccc3)CC2)c1 [Example 581]
9 | 58.3 | O=C(Nc1cccc(C2CCN(CCCCCCSc3ccccc3)CC2)c1)C1CC1 [Example 582]
10 | 55.5 | CCC(=O)Nc1cccc(C2CCN(CCCCSc3ccccc3)CC2)c1 [Example 583]
11 | 51.8 | O=C(Nc1cccc(C2CCN(CCCCSc3ccccc3)CC2)c1)C1CC1 [Example 584]
12 | 37.2 | CC(C)C(=O)Nc1cccc(C2CCN(CCCCSc3ccccc3)CC2)c1 [Example 585]
13 | 42.9 | CC(C)C(=O)Nc1cccc(C2CCN(CCCCCSc3ccccc3)CC2)c1 [Example 586]
14 | 46.9 | O=C(Nc1cccc(C2CCN(CCCCCSc3ccccc3)CC2)c1)C1CC1 [Example 587]
15 | 284 | CCC(=O)Nc1cccc(C2CCN(CCCCCCSc3ccccc3)CC2)c1 [Example 588]
16 | 66.6 | CCC(=O)Nc1cccc(C2CCN(CCCCCSc3ccccc3)CC2)c1 [Example 589]
17 | 157 | CC(C)C(=O)Nc1cccc(C2CCN(CCC[S+]([O-])c3ccc(F)cc3)CC2)c1 (stereo not shown) [Example 590]
18 | 138 | CC(C)C(=O)Nc1cccc(C2CCN(CCC[S+]([O-])c3ccccc3Br)CC2)c1 (stereo not shown) [Example 591]
19 | 186 | CC(C)C(=O)Nc1cccc(C2CCN(CC[C@H](NS(=O)(=O)c3ccc(F)c(F)c3)c3ccccc3)CC2)c1 [Example 592]
20 | 7.6 | CC(C)C(=O)Nc1cccc(C2CCN(CC[C@H](NC(=O)c3sccc3Cl)c3ccccc3)CC2)c1 [Example 593]
21 | 67 | CC(C)C(=O)Nc1cccc(C2CCN(CC[C@H](NS(=O)(=O)c3cccc4c(N(C)C)cccc34)c3ccccc3)CC2)c1 [Example 594]
22 | 36.3 | Cc1ccc(S(=O)(=O)N[C@@H](CCN2CCC(c3cccc(NC(=O)C(C)C)c3)CC2)c2ccccc2)cc1 [Example 595]
23 | 597 | CC(C)C(=O)Nc1cccc(C2CCN(CC[C@H](NS(=O)(=O)c3cc(Cl)cc(Cl)c3O)c3ccccc3)CC2)c1 [Example 596]
24 | 223 | CC(C)C(=O)Nc1cccc(C2CCN(CC[C@H](NS(C)(=O)=O)c3ccccc3)CC2)c1 [Example 597]
25 | 25.3 | CC(C)C(=O)Nc1cccc(C2CCN(CC[C@H](NS(=O)(=O)c3ccc(F)cc3)c3ccccc3)CC2)c1 [Example 598]

Row | Ki [nM] | Structure (SMILES)
26 | 50 | CC(C)C(=O)Nc1cccc(C2CCN(CC[C@H](NS(=O)(=O)c3ccc(C(C)(C)C)cc3)c3ccccc3)CC2)c1 [Example 599]
27 | 41.3 | CC(C)C(=O)Nc1cccc(C2CCN(CC[C@H](NS(=O)(=O)c3cc(Cl)ccc3Cl)c3ccccc3)CC2)c1 [Example 600]
28 | 144 | CCCS(=O)(=O)N[C@@H](CCN1CCC(c2cccc(NC(=O)C(C)C)c2)CC1)c1ccccc1 [Example 601]
29 | 44.6 | Cc1noc(C)c1S(=O)(=O)N[C@@H](CCN1CCC(c2cccc(NC(=O)C(C)C)c2)CC1)c1ccccc1 [Example 602]
30 | 287 | COC(=O)c1sccc1S(=O)(=O)NCCCN1CCC(c2cccc(NC(=O)C(C)C)c2)CC1 [Example 603, METHYL 3-{[(3-{4-[3-(ISOBUTYRYLAMINO)PHENYL]-1-PIPERIDINYL}PROPYL)AMINO]SULFONYL}-2-THIOPHENECARBOXYLATE]
31 | 36.8 | CC(C)C(=O)Nc1cccc(C2CCN(CC[C@H](NC(=O)Nc3ccc(Oc4ccccc4)cc3)c3ccccc3)CC2)c1 [Example 604]
32 | 94.5 | CC(C)C(=O)Nc1cccc(C2CCN(CC[C@H](NC(=O)Nc3ccccc3)c3ccccc3)CC2)c1 [Example 605]
33 | 40.4 | CC(C)C(=O)Nc1cccc(C2CCN(CC[C@H](NC(=S)NC(C)(C)C)c3ccccc3)CC2)c1 [Example 606]
34 | 142 | CC(C)C(=O)Nc1cccc(C2CCN(CC[C@H](NC(=O)Nc3ccccc3F)c3ccccc3)CC2)c1 [Example 607]
35 | 34.9 | Cc1ccccc1NC(=S)N[C@@H](CCN1CCC(c2cccc(NC(=O)C(C)C)c2)CC1)c1ccccc1 [Example 608]
36 | 35.4 | CC(C)C(=O)Nc1cccc(C2CCN(CC[C@H](NC(=O)NCc3ccccc3)c3ccccc3)CC2)c1 [Example 609]
37 | 530 | CC(C)C(=O)Nc1cccc(C2CCN(CC[C@H](NC(=O)Nc3ccccc3[N+](=O)[O-])c3ccccc3)CC2)c1 [Example 610]
38 | 65.1 | CC(C)C(=O)Nc1cccc(C2CCN(CC[C@H](NC(=O)Nc3ccc(Cl)c(Cl)c3)c3ccccc3)CC2)c1 [Example 611]
39 | 121 | CSc1ccccc1NC(=O)N[C@@H](CCN1CCC(c2cccc(NC(=O)C(C)C)c2)CC1)c1ccccc1 [Example 612]
40 | 34.9 | CC(C)C(=O)Nc1cccc(C2CCN(CCCNC(=O)Nc3ccc(F)cc3)CC2)c1 [Example 613]
41 | 84.8 | CC(C)C(=O)Nc1cccc(C2CCN(CCCNC(=O)Nc3ccc(Cl)c(Cl)c3)CC2)c1 [Example 614]
42 | 210 | Cc1ccccc1NC(=S)NCCCN1CCC(c2cccc(NC(=O)C(C)C)c2)CC1 [Example 615]
43 | 406 | CC(C)C(=O)Nc1cccc(C2CCN(CCCNC(=O)NCc3ccccc3)CC2)c1 [Example 616]
44 | 609 | CCOc1ccc(NC(=O)NCCCN2CCC(c3cccc(NC(=O)C(C)C)c3)CC2)cc1 [Example 617]
45 | 400 | CC(C)C(=O)Nc1cccc(C2CCN(CCCNC(=O)Nc3ccccc3)CC2)c1 [Example 618]
46 | 178 | CSc1ccccc1NC(=O)NCCCN1CCC(c2cccc(NC(=O)C(C)C)c2)CC1 [Example 619]
47 | 223 | CC(C)C(=O)Nc1cccc(C2CCN(CCCNC(=S)NC(C)(C)C)CC2)c1 [Example 620]
48 | 205 | CC(C)C(=O)Nc1cccc(C2CCN(CCCNC(=O)Nc3ccc(Oc4ccccc4)cc3)CC2)c1 [Example 621]
49 | 162 | CC(=O)Nc1cccc(C2CCN(CCCNC(=O)C3=C(C)NC(=O)CC3c3ccc(F)cc3F)CC2)c1 (stereo not shown) [Example 622]
50 | 23.1 | CC(=O)Nc1cccc(C2CCN(CCCNC(=O)C3=C(C)NC(=O)CC3c3ccc(F)c(F)c3)CC2)c1 (stereo not shown) [Example 623]

Row | Ki [nM] | Structure (SMILES)
51 | 47.8 | CC(C)C(=O)Nc1cccc(C2CCN(CCCCCCNC(=O)c3cnn(-c4ccc([N+](=O)[O-])cc4)c3C(F)(F)F)CC2)c1 [Example 624]
52 | 29.5 | CC(C)C(=O)Nc1cccc(C2CCN(CCCCCCNC(=O)C(c3ccccc3)c3ccccc3)CC2)c1 [Example 625]
53 | 20.9 | CC(C)C(=O)Nc1cccc(C2CCN(CCCCCCNC(=O)c3ccc(Oc4cc(Cl)cc(Cl)c4)o3)CC2)c1 [Example 626]
54 | 109 | CC(C)C(=O)Nc1cccc(C2CCN(CCCCCCNC(=O)c3cccnc3Oc3ccccc3)CC2)c1 [Example 627]
55 | 161 | CC(C)C(=O)Nc1cccc(C2CCN(CCCCCCNC(=O)c3ccc4ccccc4c3)CC2)c1 [Example 628]
56 | 42.9 | CC(C)C(=O)Nc1cccc(C2CCN(CCCCCCNC(=O)c3cc(C(C)(C)C)nn3Cc3ccccc3)CC2)c1 [Example 629]
57 | 202 | CC(C)C(=O)Nc1cccc(C2CCN(CCCCCCNC(=O)c3scc(S(=O)(=O)C(C)C)c3Cl)CC2)c1 [Example 630]
58 | 259 | CC(C)C(=O)Nc1cccc(C2CCN(CCCCCCNC(=O)Nc3ccccc3)CC2)c1 [Example 631]
59 | 76.6 | CC(C)C(=O)Nc1cccc(C2CCN(CCCCCCNC(=O)Nc3ccc(Cl)cc3Cl)CC2)c1 [Example 632]
60 | 108 | CCCc1c(C(=O)NCCCCCCN2CCC(c3cccc(NC(=O)C(C)C)c3)CC2)cnn1-c1ccccc1 [Example 633]
61 | 116 | CC(C)C(=O)Nc1cccc(C2CCN(CCCCCCNC(=O)Nc3cccc4ccccc34)CC2)c1 [Example 634]
62 | 73.6 | CC(C)C(=O)Nc1cccc(C2CCN(CCCCCCNC(=O)Nc3ccc(-c4ccccc4)cc3)CC2)c1 [Example 635]
63 | 40.8 | CC(C)C(=O)Nc1cccc(C2CCN(CCCCCCNC(=O)Nc3ccc4ccccc4c3)CC2)c1 [Example 636]
64 | 106 | COc1ccc(S(=O)(=O)NCCCN2CCC(c3cccc(NC(=O)C(C)C)c3)CC2)cc1OC [Example 637]
65 | 29.8 | Cc1onc(-c2ccccc2)c1C(=O)NCCCN1CCC(c2cccc(NC(=O)C(C)C)c2)CC1 [Example 638]
66 | 36.3 | CC(C)C(=O)Nc1cccc(C2CCN(CCCNC(=O)Cc3ccc(F)cc3)CC2)c1 [Example 639]
67 | 11.2 | CC(C)C(=O)Nc1cccc(C2CCN(CCCNS(=O)(=O)c3ccc(Cl)c([N+](=O)[O-])c3)CC2)c1 [Example 640]
68 | 14.2 | CC(C)C(=O)Nc1cccc(C2CCN(CCCNC(=O)c3cccnc3Oc3ccc(Cl)cc3)CC2)c1 [Example 641]
69 | 8.3 | CC(C)C(=O)Nc1cccc(C2CCN(CCCNC(=O)c3ccc(Oc4cc(Cl)cc(Cl)c4)o3)CC2)c1 [Example 642]
70 | 130 | CC(C)C(=O)Nc1cccc(C2CCN(CCCNS(=O)(=O)c3ccccc3F)CC2)c1 [Example 643]
71 | 196 | Cc1noc(C)c1S(=O)(=O)NCCCN1CCC(c2cccc(NC(=O)C(C)C)c2)CC1 [Example 644]
72 | 85.3 | CC(C)C(=O)Nc1cccc(C2CCN(CCCNS(=O)(=O)c3ccc(C(C)(C)C)cc3)CC2)c1 [Example 645]
73 | 236 | CC(C)C(=O)Nc1cccc(C2CCN(CCCCCCN)CC2)c1 [Example 646]
